Publication PMC4472782, “Antibacterial Characterization of Novel Synthetic Thiazole Compounds against Methicillin-Resistant Staphylococcus pseudintermedius” (PLoS ONE, 2015)
Values after ≈ are worked out from the molar mass of the structure shown. Where a name gives a salt, the structure may show the parent alone. Read-outs that look alike come from different tables or passages of the source.

Experiments:
[1] = tested on: murine macrophage cell line (J774.A1); experiment: In vitro cytotoxicity analysis (MTS assay); format: cell-based; settings: 10 μg/mL, J774.A1, two hours
Protocol: Compounds were assayed at concentrations of 5 μg/mL, 10 μg/mL, 20 μg/mL, and 40 μg/mL against a murine macrophage cell line (J774.A1) (ATCC TIB-67, American Type Culture Collection (ATCC), Manassas, VA, USA) to determine the potential toxic effect in vitro. Cells were cultured in Dulbeco’s modified Eagle’s medium (Sigma-Aldrich, St. Louis, MO, USA) with 10% fetal bovine serum (USA Scientific, Inc.) at 37°C with 5% CO2. Controls received DMSO alone at a concentration equal to that in drug-treated cell samples. The cells were incubated with the compounds in a 96-well plate at 37°C and 5.0% CO2 for two hours prior to addition of the assay reagent MTS 3-(4,5-dimethylthiazol-2-yl)-5-(3-carboxymethoxyphenyl)-2-(4-sulfophenyl)-2H-tetrazolium) (Promega, Madison, WI, USA). Absorbance readings were taken using a kinetic ELISA microplate reader (Molecular Devices, Sunnyvale, CA, USA). The quantity of viable cells after treatment with each compound was expressed as a percentage of the control, DMSO.
All statistical analyses were performed with GraphPad Prism 6.0 (GraphPad Software, La Jolla, CA). Data generated from cytotoxicity analysis of the thiazole compounds against J774.A1 cells and the 260 and 280 nm cell leakage analysis were analyzed using one-way ANOVA, with post hoc Tukey's multiple comparisons test (P < 0.05).

[2] = tested on: methicillin-sensitive Staphylococcus pseudintermedius; experiment: MBC determination against MSSP clinical isolates; format: cell-based; settings: nine MSSP isolates
Protocol: (§1) The MBC was determined by plating 5 μL from wells on the 96-well microtiter plate (where the MIC was determined) where no growth was observed onto Tryptic soy agar (TSA) plates. […] The MBC was categorized as the concentration where ≥99% reduction in bacterial cell count was observed.

[3] = tested on: methicillin-resistant Staphylococcus pseudintermedius; experiment: MBC determination against MRSP clinical isolates; format: cell-based; settings: six MRSP isolates
Protocol: as §1

[4] = tested on: MRSP SP3; experiment: Post-antibiotic effect against MRSP; format: cell-based, Staphylococcus pseudintermedius; settings: 4 × MIC for one hour
Protocol: A tube containing untreated bacterial cells served as a control. Afterward, the compound/antibiotic was washed out by diluting bacteria 1:1000 in MHB. Counts of CFU for all cultures were obtained after washing. Aliquots (100 μL) of bacteria were removed every hour (for 10 hours), serially diluted in PBS, and plated on TSA plates. TSA plates were incubated for 20 hours at 37°C before CFU values were determined.

[5] = tested on: methicillin-sensitive Staphylococcus pseudintermedius; experiment: MIC by broth microdilution against MSSP clinical isolates; format: cell-based; settings: nine MSSP isolates, triplicate
Protocol: (§2) Fifteen isolates of S. pseudintermedius (nine MSSP and six MRSP), identified at the Indiana Animal Disease Diagnostic Laboratory from specimens collected from dogs admitted to the small animal teaching hospital at Purdue University, were included in the study. The specimens were not collected specifically for this research study but were obtained from patients admitted to the hospital for treatment. Clinical specimens were inoculated onto 5% sheep blood agar and incubated at 35°C for 18–24 hours. Standard methods including examination of colony morphology and hemolysis and biochemical tests such as tube coagulase, Voges-Proskauer (VP) and fermentation tests for maltose, trehalose and lactose, were used in addition to matrix-assisted laser desorption ionization time of flight mass spectrometry to identify isolates. Antimicrobial susceptibility was determined by broth microdilution using the SensiTitre (Thermofisher Scientific).
(§3) Bacteria were prepared in phosphate-buffered saline (PBS) until a McFarland standard of 0.5 was achieved. The solution was subsequently diluted 1:300 in Mueller-Hinton broth (MHB) to reach a starting inoculum of 1 × 10^5 colony-forming units (CFU/mL). Bacteria were then transferred to a 96-well microtiter plate. Thiazole compounds and antibiotics were added (in triplicate) to wells in the first row of the microtiter plate and then serially diluted along the vertical axis. […] The MIC was categorized as the concentration where there was no visible growth of bacteria observed.

[6] = human liver microsomes; cited from earlier work
[7] = tested on: MRSP SP3; experiment: Time-kill analysis against MRSP; format: cell-based, Staphylococcus pseudintermedius; settings: 4 × MIC, MRSP SP3, 24 hour incubation at 37°C
Protocol: MRSP SP3 cells in late logarithmic growth phase were diluted to ~1 × 10^6 CFU/mL and exposed to concentrations equivalent to 4 × MIC (in triplicate) of thiazole compounds 1–6 and rifampicin in MHB. Samples (20 μL) were collected after 0, 2, 4, 6, 8, 10, 12, and 24 hours of incubation at 37°C and subsequently serially diluted in PBS. Bacteria were then transferred to TSA plates and incubated at 37°C for 20–24 hours before viable CFU/mL values were determined.

[8] = tested on: methicillin-resistant Staphylococcus pseudintermedius; experiment: MIC by broth microdilution against MRSP clinical isolates; format: cell-based; settings: six MRSP isolates, triplicate
Protocol: as §2, §3

[9] = tested on: MRSP SP3; experiment: Checkerboard assay of thiazole compounds with oxacillin; format: cell-based, Staphylococcus pseudintermedius
Protocol: The relationship between the thiazole compounds and oxacillin was assessed via a standard checkerboard assay. Bacteria (MRSP SP3) equivalent to a McFarland standard of 0.5 were prepared in PBS. The bacteria were next diluted in MHB to achieve a starting cell density of 1 × 10^5 CFU/mL. MHB was transferred to all wells of a 96-well microtiter plate. […] Oxacillin was serially diluted along the abscissa of the microtiter plate while the thiazole compound was serially diluted along the ordinate. The plate was incubated for 22–24 hours at 37°C. The MIC of the test compound in combination with oxacillin was determined as the lowest concentration of each compound/antibiotic where no visible growth of bacteria was observed. The fractional inhibitory concentration index (ƩFIC) was calculated for each combination as described previously. A synergistic relationship was classified as an FIC index less than or equal to 0.5. […]

[10] = set-up: method as in PMID 24387054; settings: phosphate-buffered saline; cited from earlier work
[11] = tested on: MRSP SP3; experiment: Re-sensitization of MRSP to oxacillin, broth microdilution; format: cell-based; settings: Staphylococcus pseudintermedius, clinical isolate identified as MRSP, read-out: MIC of oxacillin alone
Protocol: MHB was inoculated with MRSP SP3 (5×10^5 CFU/mL), as has been previously described. Aliquots (5 mL) of the bacterial suspension were divided into microcentrifuge tubes. The thiazole compounds tested (at ½ × MIC) were introduced into each tube. After sitting at room temperature for 30 minutes, 1 mL samples from each tube were transferred to a new centrifuge tube prior to addition of oxacillin (at a concentration equivalent to its MIC). Using a 96-well microtiter plate, rows 2–12 were filled with the remaining 4 mL bacterial suspension (containing the thiazole compound). Aliquots (200 μL) from tubes containing both the thiazole compound and oxacillin were transferred to row 1 of the 96-well plate. After aspirating contents in the first row 4–6 times, 100 μL was transferred from wells in row 1 to row 2. This process was repeated to dilute the remaining wells containing no antibiotic. Untreated bacteria served as a control. […] A fold reduction was calculated by comparing the MIC of the antibiotic alone compared to the MIC of the antibiotic given in combination with the thiazole compounds.

[12] = Kinetic (turbidimetric) solubility in PBS; format: physicochemical; settings: phosphate-buffered saline; highest concentration with no precipitate
Protocol: The absorbance of the PBS-containing plate was measured prior to addition of the test agents to determine the background absorbance. After 2 hours, the presence of precipitate was detected by turbidity (absorbance at 540 nm).

CCCCc1ccc(-c2nc(C)c(/C(C)=N/NC(=N)N)s2)cc1 [Compound 1]
toxicity to murine macrophage cells (MTS assay) [1]: toxic | MBC ([2]; Staphylococcus pseudintermedius, lowest concentration that killed 50% of isolates, read-out: MBC50): 0.46 µg/mL (≈ 1.4 µM) | MBC Range [2]: 0.17 to 2.77 µg/mL | MBC ([3]; Staphylococcus pseudintermedius, read-out: MBC50): 0.92 µg/mL (≈ 2.79 µM) | MBC Range [3]: 0.35 to 1.38 µg/mL | Post-antibiotic Effect [4]: >9 h | MIC50 ([5]; lowest concentration inhibiting growth in 50% of isolates): 0.35 µg/mL (≈ 1.06 µM) | MIC ([5]; read-out: MIC Range): 0.17 to 1.38 µg/mL (≈ 0.516 to 4.19 µM) | half-life [6]: under 30 minutes | time required to completely eliminate MRSP [7]: four hours | MIC50 ([8]; Staphylococcus pseudintermedius, read-out: MIC50): 0.69 µg/mL (≈ 2.09 µM) | MIC Range [8]: 0.35 to 1.38 µg/mL | relationship with oxacillin ([9]; checkerboard assay): synergistic | ƩFIC ([9]; combination with oxacillin, ≤ 0.5 synergistic, > 0.5 to ≤ 4.0 indifference, > 4 antagonistic): 0.19 | solubility limit [10]: 20.56 µg/mL (≈ 62.4 µM)

Cc1onc(-c2ccccc2)c1C(=O)N[C@@H]1C(=O)N2[C@@H]1SC(C)(C)[C@@H]2C(=O)O [oxacillin, oxacillin sodium salt monohydrate]
MIC [11]: 128 µg/mL

COC(=O)[C@H]1[C@H]2C[C@@H]3c4[nH]c5cc(OC)ccc5c4CCN3C[C@H]2C[C@@H](OC(=O)c2cc(OC)c(OC)c(OC)c2)[C@@H]1OC [Reserpine, reference compound]
solubility limit [12]: 19.05 µg/mL (≈ 31.3 µM)
